Here are results for one compound from patent US10492518B2, “Blood lipid-lowering composition, method for preparing the same and use thereof” (INFINITUS (CHINA) COMPANY LTD., priority 2018, dated 2019).

The subject of this experiment is mixed hyperlipidemia model in SD rat. Description: Test of the blood lipid-lowering efficacy: serum TC, TG, HDL-C, LDL-C and apo-A1 after 30 days oral administration. Type of experiment: in vivo. Conditions: positive control, atorvastatin calcium 0.83 mg/Kg oral, high fat diet SD rats. As to the method:
Experiment object: compositions of examples 1 to 4, single component group (500 mg of echium seed oil), and two positive control groups: fish oil group (180 mg of EPA and 120 mg of DHA in each 1000 mg oil fish, purchased from Amway), and atorvastatin calcium group (each tablet was 20 mg containing 10 mg of active ingredient atorvastatin calcium, purchased from Pfizer Pharmaceutical Co., Ltd.).
Reference was made to the test method of adjunctive blood lipid-lowering function in the Technical specification for health care food inspection and evaluation. The SPF grade male SD rats were chosen as the experimental animals. After the adaptation period, an animal model of mixed hyperlipidemia was established, and the rats were randomly divided into groups according to the TC level.
There were three dosage groups, two positive control groups, one blank control group and one model control group. In low-dosage group, the dosage of the test sample was equal to 5 times ([…]) of the recommended amount for human; for the other two dosage groups, the dosages were respectively equal to 10 times (333.33 mg/kg) and 25 times (833.33 mg/kg) of the recommended amount for human. The dosage of the positive control group was equal to 5 times of the recommended amount for human (fish oil: 150 mg/Kg; atorvastatin calcium 0.83 mg/Kg). The blank control group and the model control group were administered with distilled water of the same volume by intragastric gavage. Each of the groups was weighed regularly. 30 days after the administration, blood samples were collected from the rats without fasting, and the serums were separated. TC (total cholesterol), TG (total triglyceride), (high-density lipoprotein cholesterol) and apo-A1 (apolipoprotein A1) were tested. The methods were illustrated in details hereinafter.
Adaptation period: in a barrier system the rats were fed for regular feed and observed for 5 to 7 days.
The rats were randomly divided into 22 groups according to the weight, 6 rats per group. One group of rats was fed with regular feed as the blank control group. The other 21 groups were fed with high fat diet as the model control group. All rats were weighed once a week.
20 days after the model control groups were fed with high fat diet, blood samples (1 to 1.5 mL of blood from the tail vein) were collected from the rats of the blank control group and the model control group without fasting. After the blood collection, the serum were quickly separated and transferred to a new centrifuge tube, and then cryopreserved at −20° C. for test. ELISA test kits for cholesterol, triglyceride, HDL-cholesterol and LDL-cholesterol were used to test the levels of TC, TG, LDL-C and HDL-C in the rat serum. […]

`CC(C)c1c(C(=O)Nc2ccccc2)c(-c2ccccc2)c(-c2ccc(F)cc2)n1CC[C@@H](O)C[C@@H](O)CC(=O)[O-].CC(C)c1c(C(=O)Nc2ccccc2)c(-c2ccccc2)c(-c2ccc(F)cc2)n1CC[C@@H](O)C[C@@H](O)CC(=O)[O-].[Ca+2]` [Atorvastatin Calcium, atorvastatin calcium]: the “Serum HDL-C, Mean Value ± Standard Deviation” value was 919.74 ± 150.63 µmol/L; the “Serum LDL-C, Mean Value ± Standard Deviation” value turned out to be 853.24 ± 236.19 µmol/L; the “Serum total cholesterol (TC), Mean Value ± Standard Deviation” value was found to be 1117.14 ± 171.07 µmol/L; the “Serum triglyceride (TG), Mean Value ± Standard Deviation” value was found to be 189.71 ± 45.83 µmol/L.
